Test results published in patent US9326511B2, “Methods of inhibiting microbial biofilms” (priority 2008, dated 2016).
Like-named read-outs stand apart in the source and are kept apart here.

What was measured:
Format in all cases: cell-based, Staphylococcus aureus
[1] = tested on: S. aureus SH1000 stationary phase cultures; assay: Time-kill against stationary phase cultures; settings: early, mid and late stationary phase (24, 48, 72 hours), 10^8 bacteria/mL in spent medium
Description: The anti-staphylococcal activities of Compound 10, Compound 12 and a range of comparator agents against stationary phase cultures of Staphylococcus aureus were studied using standard time-kill methodology (Oliva et al., 2003, Hobbs et al., 2008). A growth curve was constructed to identify when SH1000 cultures enter and leave stationary phase. 50 mL of Mueller-Hinton broth (MHB) was inoculated with 500 μL of Staphylococcus aureus SH1000 overnight culture and was maintained at 37° C. with agitation for 8 days. The culture turbidity at OD600 nm was measured at regular intervals using a Jenway 6300 spectrophotometer with a 1 cm light path (Jenway, Essex, UK). Staphylococcus aureus SH1000 cultures were grown to early, mid and late stationary phase at 37° C. by incubation for 24, 48 and 72 hours respectively. Cultures were centrifuged, the supernatant was removed, and then a portion of the cell pellet was resuspended in the counterpart supernatant to an OD600 nm of 0.2 (10^8 bacteria/mL). A time-kill assay was then performed on these stationary phase suspensions to study the effects of antimicrobial agents on bacterial cell viability. An untreated culture served as the negative control. The experiments were undertaken in triplicate. […]

[2] = tested on: stringent S. aureus SH1000 cultures; assay: Time-kill against cultures expressing the stringent response (induced with mupirocin); settings: for viability / bactericidal activity in time-kill (in words): stringent response induced with mupirocin, agents at 4×MIC
Description: (§1) Methods: MICs were determined for planktonic cultures by broth microdilution according to British Society for Antimicrobial Chemotherapy (BSAC) guidelines. Biofilm MICs (bMIC) and minimum biofilm eradication concentrations (MBECs) were determined using the Calgary biofilm device. The effect of Compound 10 on the viability of cold culture cells was determined by growing S. aureus SH1000 to early exponential phase at 37° C. and resuspending the cells in pre-chilled media, where they were maintained in the presence and absence of Compound 10 and control agents. The effect of Compound 10 on slow growing cells expressing the stringent response was also determined by growing cultures to early log phase and the stringent response induced by the addition of the isoleucyl-tRNA synthetase inhibitor mupirocin. Compound 10 and control agents were then added and samples recovered for viable cell determinations.
When nutrients become limiting for growth bacteria adjust their metabolism from one that supports growth to one that provides for long survival in the absence of nutrients. In many bacteria a key facilitator of this physiological switch, known as the stringent response, is accumulation of guanosine […] and pentaphosphate (Traxler et al., 2008). The antibiotic mupirocin is a strong inducer of the stringent response in S. aureus and effectively causes starvation of charged isoleucyl tRNA by potent inhibition of isoleucy ItRNA synthetase (IRS) (Oliva et al., 2003). The activity of XF drugs against S. aureus SH1000 prevented from growing by the addition of mupirocin (Oliva et al., 2003), was therefore examined (FIG. 10). As an alternative method for arresting growth, bacteria were suspended in cold growth medium (Mascio et al., 2007) and the bactericidal activity of XF drugs was also determined under these conditions (FIG. 11).
(§2) The anti-staphylococcal activities of Compound 10, Compound 12 and a range of comparator agents against slow-growing cultures of Staphylococcus aureus were studied using standard time-kill methodology (Oliva et al. 2003, Hobbs et al. 2008). Staphylococcus aureus SH1000 cultures were grown to early exponential phase (OD600 nm of 0.2) in Mueller-Hinton broth (MHB) before being exposed to antibacterial agents at 4×MIC. An untreated culture served as the negative control. The experiments were undertaken in triplicate.
The antibiotic mupirocin is a strong inducer of the stringent response in S. aureus and causes starvation of charged isoleucyl tRNA by potent inhibition of isoleucyl tRNA synthetase (IRS) (Oliva et al. 2003, Cassels et al. 1995) Stringency was induced in SH1000 cultures by adding mupirocin (4 mg/L) to cells in the early exponential growth phase (OD600 nm of 0.2) (Oliva et al. 2003, Cassels et al. 1995). Cultures were incubated with mupirocin for 30 minutes before sampling began. Cultures were maintained at 37° C., and samples were taken at 30 minute intervals for 300 minutes, serially diluted in phosphate buffered saline (PBS) and diluted culture was spread on Mueller-Hinton agar and was incubated at 37° C. for 18-24 hours before the number of CFU were counted.

S. aureus SH1000 = assay: Planktonic MIC by broth microdilution (BSAC guidelines)
Description: as §1

[3] = tested on: S. aureus SH1000 cold cultures; assay: Time-kill against cold cultures (4° C.); settings: for viability / bactericidal activity in time-kill (in words): cold culture held at 4° C. for 5 hours, agents at 4×MIC
Description: as §1
The effect of XF drugs on the viability of cold culture cells was determined by growing S. aureus SH1000 to early exponential phase at 37° C., harvesting the cells by centrifugation (5,000×g, 10 min.) and resuspending them in pre-chilled media where they were maintained in the presence and absence of XF drugs and control agents for 5 hours. […] (FIG. 11).
as §2
Cold cultures were prepared by growing SH1000 cells to early exponential phase (OD600 nm of 0.2) at 37° C. Cultures were then centrifuged and the cell pellet was resuspended in MHB pre-chilled to 4° C. The killing kinetics of antimicrobial agents were studied as described in the section above, with the exception that cultures were maintained at 4° C. over the 5 hour sampling period.

MIC (S. aureus SH1000; Staphylococcus aureus, planktonic S. aureus SH1000 (Table 6), read-out: MIC) | Structure (SMILES) | bactericidal activity in time-kill (in words) [1] | drop in viability ([2]; stringent response cultures, 4×MIC, within 1 hour) | viability / bactericidal activity in time-kill (in words) [2] | MIC (S. aureus SH1000; Staphylococcus aureus, planktonic S. aureus SH1000 (Table 5), read-out: MIC) | MIC (S. aureus SH1000; planktonic S. aureus SH1000 (Table 6)) | drop in viability ([3]; cold culture (4° C.), 4×MIC, within 1 hour) | viability / bactericidal activity in time-kill (in words) [3]
– | C[N+](C)(C)CCCOc1ccc(-c2c3nc(cc4ccc([nH]4)c(-c4ccc(OCCC[N+](C)(C)C)cc4)c4nc(cc5ccc2[nH]5)C=C4)C=C3)cc1.[Cl-].[Cl-] [Compound 10, 5,15-bis-[4-(3-Trimethylammonio-propyloxy)-phenyl]-porphyrin dichloride] | retained potent bactericidal activity | 5 log | retained potent bactericidal activity | 1 µg/mL | 1 µg/mL | 5 log | retained potent bactericidal activity
1 µg/mL | C[N+](C)(C)CCCOc1cccc(-c2c3nc(cc4ccc([nH]4)c(-c4cccc(OCCC[N+](C)(C)C)c4)c4nc(cc5ccc2[nH]5)C=C4)C=C3)c1.[Cl-].[Cl-] [Compound 12, 5,15-bis-[3-(3-Trimethylammonio-propyloxy)-phenyl]-porphyrin dichloride] | retained potent bactericidal activity | – | retained potent bactericidal activity | – | – | – | retained potent bactericidal activity
